# Source: ChEMBL document CHEMBL4414548 (J Med Chem, 2019)
# Experiments:
# [1] = Drug concentration in Balb/c mouse at 10 mg/kg, po after 3 hrs; assay type: ADME, organism-based; details: in vivo, read-out: Drug uptake
# [2] = Drug concentration in Balb/c mouse at 3 mg/kg, iv after 1 hr; assay type: ADME, organism-based; details: in vivo, read-out: Drug uptake
# [3] = molecular target: Tyrosine-protein kinase JAK1 (Homo sapiens, UniProt P23458); test: Inhibition of JAK1 JH1 domain (unknown origin)
# [4] = molecular target: T1, Voltage-gated inwardly rectifying potassium channel KCNH2 (Homo sapiens, UniProt Q12809); test: Inhibition of human ERG by fluorescence polarization assay
# [5] = Drug concentration in Balb/c mouse at 3 mg/kg, iv after 7 hrs; assay type: ADME, organism-based; details: in vivo, read-out: Drug uptake
# [6] = molecular target: T2, Non-receptor tyrosine-protein kinase TYK2 (Homo sapiens, UniProt P29597); test: Inhibition of fluorescein-labeled kinase tracer binding to His-TVMV-fused TYK2 JH2 domain (575 to 869 residues) (unknown origin) measured after 90 mins by HTRF assay
# [7] = AUClast in mouse at 10 mg/kg, po; assay type: ADME, organism-based; parameters: dose 10 mg/kg, route oral, time 0 - last; details: in vivo
# [8] = Permeability across apical to basolateral side in human Caco2 cells; assay type: ADME, cell-based; details: Caco-2, read-out: permeability
# [9] = AUClast in Balb/c mouse assessed as 6-((5-Fluoropyridin-2-yl)amino)-4-((2-(methylsulfonyl)phenyl)amino)nicotinamide level at 3 mg/kg, iv; assay type: ADME, organism-based; parameters: dose 3 mg/kg, route intravenous, time 0 - last; details: in vivo
# JAK2/TYK2 = JAK2/TYK2 (Homo sapiens, UniProt O60674+P29597); test: Inhibition of TYK2/JAK2 in IL23-stimulated human Kit225 cells by steady-glo luciferase assay
# [10] = AUClast in Balb/c mouse at 3 mg/kg, iv; assay type: ADME, organism-based; parameters: dose 3 mg/kg, route intravenous, time 0 - last; details: in vivo
# [11] = Drug concentration in Balb/c mouse at 3 mg/kg, iv after 0.5 hrs; assay type: ADME, organism-based; details: in vivo, read-out: Drug uptake
# [12] = Cmax in Balb/c mouse assessed as 6-((5-Fluoropyridin-2-yl)amino)-4-((2-(methylsulfonyl)phenyl)amino)nicotinamide level at 10 mg/kg, po after 1 hr; assay type: ADME, organism-based; parameters: dose 10 mg/kg, route oral; details: in vivo
# [13] = molecular target: Mast/stem cell growth factor receptor Kit (Homo sapiens, UniProt P10721); test: Inhibition of cKIT (unknown origin)
# [14] = Cmax in Balb/c mouse assessed as 6-((5-Fluoropyridin-2-yl)amino)-4-((2-(methylsulfonyl)phenyl)amino)nicotinamide level at 10 mg/kg, po after 0.05 hrs; assay type: ADME, organism-based; parameters: dose 10 mg/kg, route oral; details: in vivo
# [15] = Drug concentration in Balb/c mouse at 3 mg/kg, iv after 3 hrs; assay type: ADME, organism-based; details: in vivo, read-out: Drug uptake
# [16] = Drug concentration in Balb/c mouse at 3 mg/kg, iv after 5 hrs; assay type: ADME, organism-based; details: in vivo, read-out: Drug uptake
# [17] = Half life in Balb/c mouse at 3 mg/kg, iv; assay type: ADME, organism-based; details: in vivo
# [18] = Partition coefficient, log P of compound by HPLC analysis; assay type: physicochemical; details: octanol/water
# [19] = Cmax in Balb/c mouse assessed as 6-((5-Fluoropyridin-2-yl)amino)-4-((2-(methylsulfonyl)phenyl)amino)nicotinamide level at 3 mg/kg, iv after 3 hrs; assay type: ADME, organism-based; parameters: dose 3 mg/kg, route intravenous; details: in vivo
# [20] = Cmax in Balb/c mouse assessed as 6-((5-Fluoropyridin-2-yl)amino)-4-((2-(methylsulfonyl)phenyl)amino)nicotinamide level at 3 mg/kg, iv after 0.5 hrs; assay type: ADME, organism-based; parameters: dose 3 mg/kg, route intravenous; details: in vivo
# [21] = Cmax in Balb/c mouse assessed as 6-((5-Fluoropyridin-2-yl)amino)-4-((2-(methylsulfonyl)phenyl)amino)nicotinamide level at 3 mg/kg, iv after 5 hrs; assay type: ADME, organism-based; parameters: dose 3 mg/kg, route intravenous; details: in vivo
# [22] = Volume of distribution at steady state in Balb/c mouse at 3 mg/kg, iv; assay type: ADME, organism-based; details: in vivo, read-out: Vdss
# [23] = molecular target: T1, Voltage-gated inwardly rectifying potassium channel KCNH2; test: Inhibition of human ERG by patch clamp assay
# [24] = Drug concentration in Balb/c mouse at 10 mg/kg, po after 5 hrs; assay type: ADME, organism-based; details: in vivo, read-out: Drug uptake
# [25] = AUClast in Balb/c mouse at 10 mg/kg, po; assay type: ADME, organism-based; parameters: dose 10 mg/kg, time 0 - last, route oral; details: in vivo
# [26] = Cmax in mouse at 10 mg/kg, po; assay type: ADME, organism-based; parameters: dose 10 mg/kg, route oral; details: in vivo
# [27] = Cmax in Balb/c mouse assessed as 6-((5-Fluoropyridin-2-yl)amino)-4-((2-(methylsulfonyl)phenyl)amino)nicotinamide level at 10 mg/kg, po after 5 hrs; assay type: ADME, organism-based; parameters: dose 10 mg/kg, route oral; details: in vivo
# [28] = molecular target: Non-receptor tyrosine-protein kinase TYK2 (Mus musculus, UniProt Q9R117); test: Inhibition of TYK2 JH2 domain in mouse whole blood assessed as inhibition of IFNalpha-induced STAT1 phosphorylation preincubated for 1 hr followed by IFNalpha stimulation and measured after 15 mins by fluorescence assay; assay type: tissue-based
# [29] = Cmax in Balb/c mouse assessed as 6-((5-Fluoropyridin-2-yl)amino)-4-((2-(methylsulfonyl)phenyl)amino)nicotinamide level at 3 mg/kg, iv after 1 hr; assay type: ADME, organism-based; parameters: dose 3 mg/kg, route intravenous; details: in vivo
# [30] = molecular target: T2, Non-receptor tyrosine-protein kinase TYK2; test: Inhibition of TYK2 JH1 domain (unknown origin)
# [31] = Cmax in Balb/c mouse assessed as 6-((5-Fluoropyridin-2-yl)amino)-4-((2-(methylsulfonyl)phenyl)amino)nicotinamide level at 10 mg/kg, po after 3 hrs; assay type: ADME, organism-based; parameters: dose 10 mg/kg, route oral; details: in vivo
# [32] = Drug concentration in Balb/c mouse at 10 mg/kg, po after 1 hr; assay type: ADME, organism-based; details: in vivo, read-out: Drug uptake
# [33] = Metabolic stability in mouse liver microsomes assessed as parent compound remaining after 10 mins; assay type: ADME, Microsome; details: read-out: Stability
# [34] = AUClast in Balb/c mouse assessed as 6-((5-Fluoropyridin-2-yl)amino)-4-((2-(methylsulfonyl)phenyl)amino)nicotinamide level at 10 mg/kg, po; assay type: ADME, organism-based; parameters: dose 10 mg/kg, time 0 - last, route oral; details: in vivo
# [35] = molecular target: Tyrosine-protein kinase JAK2 (Homo sapiens, UniProt O60674); test: Inhibition of JAK2 JH1 domain (unknown origin)
# [36] = Metabolic stability in rat liver microsomes assessed as parent compound remaining after 10 mins; assay type: ADME, Microsome; details: read-out: Stability
# [37] = Drug concentration in Balb/c mouse at 10 mg/kg, po after 7 hrs; assay type: ADME, organism-based; details: in vivo, read-out: Drug uptake
# [38] = Efflux ratio of permeability in human Caco2; assay type: ADME, cell-based; details: Caco-2
# [39] = molecular target: T2, Non-receptor tyrosine-protein kinase TYK2; test: Inhibition of TYK2 JH2 domain in human whole blood assessed as inhibition of IFNalpha-induced STAT5 phosphorylation preincubated for 1 hr followed by IFNalpha stimulation and measured after 15 mins by fluorescence assay; assay type: tissue-based
# [40] = Cmax in Balb/c mouse assessed as 6-((5-Fluoropyridin-2-yl)amino)-4-((2-(methylsulfonyl)phenyl)amino)nicotinamide level at 10 mg/kg, po after 0.5 hrs; assay type: ADME, organism-based; parameters: dose 10 mg/kg, route oral; details: in vivo
# [41] = Metabolic stability in human liver microsomes assessed as parent compound remaining after 10 mins; assay type: ADME, Microsome; details: read-out: Stability
# JAK3/JAK1 = JAK3/JAK1 (Homo sapiens, UniProt P23458+P52333); test: Inhibition of JAK1/JAK3 (unknown origin) in IL-2 stimulated cells by cell based assay
# [42] = Clearance in Balb/c mouse at 3 mg/kg, iv; assay type: ADME, organism-based; details: in vivo
# [43] = Drug concentration in Balb/c mouse at 10 mg/kg, po after 0.5 hrs; assay type: ADME, organism-based; details: in vivo, read-out: Drug uptake
# JAK2/JAK1 = JAK2/JAK1 (Homo sapiens, UniProt O60674+P23458); test: Inhibition of JAK1/JAK2 (unknown origin) in GM-CSF stimulated cells by cell based assay
# [44] = Cmax in Balb/c mouse assessed as 6-((5-Fluoropyridin-2-yl)amino)-4-((2-(methylsulfonyl)phenyl)amino)nicotinamide level at 10 mg/kg, po after 7 hrs; assay type: ADME, organism-based; parameters: dose 10 mg/kg, route oral; details: in vivo
# [45] = Drug concentration in Balb/c mouse at 10 mg/kg, po after 0.05 hrs; assay type: ADME, organism-based; details: in vivo, read-out: Drug uptake
# [46] = Oral bioavailability in Balb/c mouse at 10 mg/kg; assay type: ADME, organism-based; details: in vivo
# [47] = Drug concentration in Balb/c mouse at 3 mg/kg, iv after 0.05 hrs; assay type: ADME, organism-based; details: in vivo, read-out: Drug uptake
# [48] = Cmax in Balb/c mouse assessed as 6-((5-Fluoropyridin-2-yl)amino)-4-((2-(methylsulfonyl)phenyl)amino)nicotinamide level at 3 mg/kg, iv after 0.05 hrs; assay type: ADME, organism-based; parameters: dose 3 mg/kg, route intravenous; details: in vivo
# [49] = Cmax in Balb/c mouse assessed as 6-((5-Fluoropyridin-2-yl)amino)-4-((2-(methylsulfonyl)phenyl)amino)nicotinamide level at 3 mg/kg, iv after 7 hrs; assay type: ADME, organism-based; parameters: dose 3 mg/kg, route intravenous; details: in vivo
# [50] = molecular target: 3',5'-cyclic-AMP phosphodiesterase 4D (Homo sapiens, UniProt Q08499); test: Inhibition of [3H]cAMP binding to recombinant human His-Tb fused PDE4D2 (86 to 413 residues) expressed in Escherichia coli using [3H]cAMP as substrate preincubated for 10 mins followed by [3H]cAMP addition and measured after 1 hr by scintillation proximity assay
# JAK1/TYK2 = JAK1/TYK2 (Homo sapiens, UniProt P23458+P29597); test: Inhibition of TYK2/JAK1 in IFNalpha-stimulated human Kit225 cells by steady-glo luciferase assay
# T2 sequence (P29597 whole entry, the tested form may be a part): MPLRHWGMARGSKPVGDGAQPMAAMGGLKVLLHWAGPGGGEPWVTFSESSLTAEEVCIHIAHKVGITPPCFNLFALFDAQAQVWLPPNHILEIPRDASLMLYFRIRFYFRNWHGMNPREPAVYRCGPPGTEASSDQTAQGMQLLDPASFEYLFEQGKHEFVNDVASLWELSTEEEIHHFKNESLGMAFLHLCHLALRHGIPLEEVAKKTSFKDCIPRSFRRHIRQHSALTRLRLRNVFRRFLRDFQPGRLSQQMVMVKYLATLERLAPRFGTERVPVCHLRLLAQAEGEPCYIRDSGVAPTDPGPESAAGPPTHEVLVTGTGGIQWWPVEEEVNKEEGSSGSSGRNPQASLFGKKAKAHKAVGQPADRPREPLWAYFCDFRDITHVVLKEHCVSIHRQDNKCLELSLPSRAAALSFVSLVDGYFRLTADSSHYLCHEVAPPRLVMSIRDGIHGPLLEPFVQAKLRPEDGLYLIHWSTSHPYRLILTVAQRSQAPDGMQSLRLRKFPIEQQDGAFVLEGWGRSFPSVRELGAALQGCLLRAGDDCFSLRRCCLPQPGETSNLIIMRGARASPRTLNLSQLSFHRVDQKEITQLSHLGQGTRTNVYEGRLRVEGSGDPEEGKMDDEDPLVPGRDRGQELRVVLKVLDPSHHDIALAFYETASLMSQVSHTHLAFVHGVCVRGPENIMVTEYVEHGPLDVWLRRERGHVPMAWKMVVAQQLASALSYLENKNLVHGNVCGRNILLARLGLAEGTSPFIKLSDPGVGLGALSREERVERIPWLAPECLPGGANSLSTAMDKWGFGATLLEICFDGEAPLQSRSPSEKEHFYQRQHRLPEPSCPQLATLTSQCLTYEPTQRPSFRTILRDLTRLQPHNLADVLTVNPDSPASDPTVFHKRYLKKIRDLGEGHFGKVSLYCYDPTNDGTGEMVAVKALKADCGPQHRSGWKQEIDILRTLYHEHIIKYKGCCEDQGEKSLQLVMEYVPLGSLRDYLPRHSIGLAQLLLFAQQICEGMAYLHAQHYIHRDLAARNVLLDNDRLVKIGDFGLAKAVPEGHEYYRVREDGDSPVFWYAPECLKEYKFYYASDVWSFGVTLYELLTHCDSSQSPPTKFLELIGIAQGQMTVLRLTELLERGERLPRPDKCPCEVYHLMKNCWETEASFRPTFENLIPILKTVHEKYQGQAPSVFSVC
# T1 sequence (Q12809 whole entry): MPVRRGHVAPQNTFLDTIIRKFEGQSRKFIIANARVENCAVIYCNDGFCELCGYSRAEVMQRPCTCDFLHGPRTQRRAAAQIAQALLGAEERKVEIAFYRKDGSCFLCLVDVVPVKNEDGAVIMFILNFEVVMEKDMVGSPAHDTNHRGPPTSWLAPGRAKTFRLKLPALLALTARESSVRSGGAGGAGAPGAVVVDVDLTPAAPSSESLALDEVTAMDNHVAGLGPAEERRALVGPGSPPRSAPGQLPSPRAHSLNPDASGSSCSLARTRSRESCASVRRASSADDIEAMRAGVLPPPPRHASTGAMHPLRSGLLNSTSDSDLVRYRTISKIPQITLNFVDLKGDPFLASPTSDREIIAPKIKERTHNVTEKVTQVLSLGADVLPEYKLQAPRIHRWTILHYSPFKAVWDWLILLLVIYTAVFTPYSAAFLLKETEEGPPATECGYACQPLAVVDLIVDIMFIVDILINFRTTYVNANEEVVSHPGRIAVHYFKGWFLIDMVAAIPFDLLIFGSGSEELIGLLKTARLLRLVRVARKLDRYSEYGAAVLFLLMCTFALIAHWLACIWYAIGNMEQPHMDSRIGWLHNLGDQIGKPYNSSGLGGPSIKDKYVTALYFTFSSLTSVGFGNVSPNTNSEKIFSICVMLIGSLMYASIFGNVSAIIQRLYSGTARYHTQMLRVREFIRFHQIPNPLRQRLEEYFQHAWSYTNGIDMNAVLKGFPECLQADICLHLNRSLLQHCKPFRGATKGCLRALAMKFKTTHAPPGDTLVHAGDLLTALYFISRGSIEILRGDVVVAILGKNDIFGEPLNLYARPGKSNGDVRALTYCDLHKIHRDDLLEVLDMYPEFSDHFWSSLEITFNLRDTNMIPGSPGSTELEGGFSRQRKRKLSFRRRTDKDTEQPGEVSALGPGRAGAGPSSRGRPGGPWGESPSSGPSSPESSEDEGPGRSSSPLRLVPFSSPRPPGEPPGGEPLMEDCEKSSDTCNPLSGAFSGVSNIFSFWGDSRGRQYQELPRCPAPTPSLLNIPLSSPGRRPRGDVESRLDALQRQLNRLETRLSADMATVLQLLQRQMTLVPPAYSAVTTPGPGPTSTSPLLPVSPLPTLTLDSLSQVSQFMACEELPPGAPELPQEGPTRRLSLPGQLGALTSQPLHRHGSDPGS
# JAK2/TYK2, sequence (O60674 whole entry): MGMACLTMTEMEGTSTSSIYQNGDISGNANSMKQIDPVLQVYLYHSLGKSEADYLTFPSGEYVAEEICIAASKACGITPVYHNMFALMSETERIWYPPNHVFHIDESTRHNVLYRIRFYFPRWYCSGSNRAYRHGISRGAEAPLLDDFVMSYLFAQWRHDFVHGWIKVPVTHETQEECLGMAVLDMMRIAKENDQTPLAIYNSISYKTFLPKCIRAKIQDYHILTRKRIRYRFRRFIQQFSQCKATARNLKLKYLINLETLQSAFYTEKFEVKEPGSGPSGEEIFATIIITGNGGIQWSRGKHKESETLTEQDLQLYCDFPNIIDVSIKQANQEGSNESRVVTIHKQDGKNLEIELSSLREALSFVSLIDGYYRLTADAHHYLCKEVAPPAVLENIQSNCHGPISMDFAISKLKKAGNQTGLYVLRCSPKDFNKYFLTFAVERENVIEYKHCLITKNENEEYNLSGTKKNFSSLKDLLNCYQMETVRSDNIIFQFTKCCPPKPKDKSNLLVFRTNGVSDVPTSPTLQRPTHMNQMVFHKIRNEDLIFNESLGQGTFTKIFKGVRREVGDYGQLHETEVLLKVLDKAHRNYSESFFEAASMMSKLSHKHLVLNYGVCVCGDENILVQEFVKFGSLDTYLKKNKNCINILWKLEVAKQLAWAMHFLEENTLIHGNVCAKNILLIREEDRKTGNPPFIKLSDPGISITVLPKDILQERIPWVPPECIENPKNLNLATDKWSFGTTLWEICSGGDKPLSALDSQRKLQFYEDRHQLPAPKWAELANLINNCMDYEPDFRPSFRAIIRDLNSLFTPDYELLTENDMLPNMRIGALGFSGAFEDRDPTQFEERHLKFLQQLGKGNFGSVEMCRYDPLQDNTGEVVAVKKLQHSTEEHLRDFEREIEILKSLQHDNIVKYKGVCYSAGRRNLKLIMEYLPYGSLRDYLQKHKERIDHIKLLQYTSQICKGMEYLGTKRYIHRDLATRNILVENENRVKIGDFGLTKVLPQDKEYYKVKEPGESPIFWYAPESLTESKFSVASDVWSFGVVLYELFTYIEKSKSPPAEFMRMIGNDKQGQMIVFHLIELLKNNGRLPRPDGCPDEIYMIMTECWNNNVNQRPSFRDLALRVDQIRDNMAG
# JAK2/TYK2, sequence (P29597 whole entry): as the sequence (P29597 whole entry, the tested form may be a part) above
# Tyrosine-protein kinase JAK2, sequence (O60674 whole entry, the tested form may be a part): as the sequence (O60674 whole entry) above
# Mast/stem cell growth factor receptor Kit, sequence (P10721 whole entry): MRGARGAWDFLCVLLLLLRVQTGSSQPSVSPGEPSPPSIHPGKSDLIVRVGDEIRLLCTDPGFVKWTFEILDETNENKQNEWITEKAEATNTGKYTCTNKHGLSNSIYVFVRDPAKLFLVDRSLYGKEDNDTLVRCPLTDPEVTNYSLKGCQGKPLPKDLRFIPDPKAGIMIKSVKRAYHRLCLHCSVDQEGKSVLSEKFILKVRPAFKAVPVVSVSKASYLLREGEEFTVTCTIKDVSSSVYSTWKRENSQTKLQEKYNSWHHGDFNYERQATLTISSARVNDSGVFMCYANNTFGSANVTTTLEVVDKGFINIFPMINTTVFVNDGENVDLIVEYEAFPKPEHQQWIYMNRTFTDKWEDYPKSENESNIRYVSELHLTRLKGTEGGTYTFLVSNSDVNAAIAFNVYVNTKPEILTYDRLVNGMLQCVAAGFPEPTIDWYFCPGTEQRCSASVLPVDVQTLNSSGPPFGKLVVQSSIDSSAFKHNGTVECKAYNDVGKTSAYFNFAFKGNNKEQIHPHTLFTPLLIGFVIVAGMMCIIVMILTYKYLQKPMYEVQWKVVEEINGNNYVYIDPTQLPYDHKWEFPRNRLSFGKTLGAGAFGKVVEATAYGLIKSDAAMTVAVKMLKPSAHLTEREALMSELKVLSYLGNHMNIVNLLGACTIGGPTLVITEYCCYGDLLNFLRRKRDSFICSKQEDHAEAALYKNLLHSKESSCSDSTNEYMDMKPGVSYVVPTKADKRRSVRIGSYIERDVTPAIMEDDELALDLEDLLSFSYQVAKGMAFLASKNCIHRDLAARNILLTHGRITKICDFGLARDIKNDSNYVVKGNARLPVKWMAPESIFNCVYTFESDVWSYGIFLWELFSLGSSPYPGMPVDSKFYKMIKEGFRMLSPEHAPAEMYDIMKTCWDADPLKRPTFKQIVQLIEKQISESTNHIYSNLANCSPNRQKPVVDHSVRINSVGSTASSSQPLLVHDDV
compound,measurement,setting,value
CNC(=O)c1cnc(Nc2ccc(F)cn2)cc1Nc1ccccc1S(C)(=O)=O,concentration at 3 h,[1],1500 nM
same,concentration at 1 h,[2],2100 nM
same,IC50,[3],> 50000 nM
same,IC50,[4],25000 nM
same,concentration at 7 h,[5],190 nM
same,IC50,[6],0.92 nM
same,AUC(0-t),[7],9.83 µM·h
same,Papp A→B,[8],4.8 ×10⁻⁶ cm/s
same,AUClast,[9],0.36 µM·h
same,IC50,JAK2/TYK2,63 nM
same,AUC(0-t),[10],7 µM·h
same,concentration at 0.5 h,[11],2100 nM
same,Cmax,[12],21 nM
same,IC50,[13],100 nM
same,Cmax,[14],9.8 nM
same,concentration at 3 h,[15],530 nM
same,concentration at 5 h,[16],440 nM
same,half-life,[17],3 h
same,logP,[18],2.61
same,Cmax,[19],33 nM
same,Cmax,[20],110 nM
same,Cmax,[21],41 nM
same,Vd,[22],2.8 L/kg
same,IC50,[23],2500 nM
same,concentration at 5 h,[24],1400 nM
same,AUC(0-t),[25],8.1 µM·h
same,Cmax,[26],1620 nM
same,Cmax,[27],47 nM
same,IC50,[28],450 nM
same,Cmax,[29],84 nM
same,IC50,[30],> 50000 nM
same,Cmax,[31],28 nM
same,concentration at 1 h,[32],1600 nM
same,remaining at 10 min,[33],87%
same,AUClast,[34],0.2 µM·h
same,IC50,[35],> 50000 nM
same,remaining at 10 min,[36],85%
same,concentration at 7 h,[37],450 nM
same,efflux ratio,[38],10
same,IC50,[39],180 nM
same,Cmax,[40],14 nM
same,remaining at 10 min,[41],90%
same,IC50,JAK3/JAK1,> 12500 nM
same,clearance,[42],15 mL/min/kg
same,concentration at 0.5 h,[43],1400 nM
same,IC50,JAK2/JAK1,> 12500 nM
same,Cmax,[44],24 nM
same,concentration at 0.05 h,[45],780 nM
same,bioavailability,[46],35%
same,concentration at 0.05 h,[47],3500 nM
same,Cmax,[48],51 nM
same,Cmax,[49],54 nM
same,IC50,[50],4200 nM
same,IC50,JAK1/TYK2,63 nM
